Laboratory results taken from the NIST ThermoML archive (doi:10.1016/j.jct.2015.08.014).

Test: xn = mol fraction of the nth substance listed
Conditions: 303.15 K, 100 kPa, Liquid, Alternating current cell with electrodes

CCCC[N+]1(C)CCCC1.N#CN=C=[N-] [1-butyl-1-methylpyrrolidinium dicyanamide] + O=C1CCCO1
Conditions | electrical conductivity [S/m]
Frequency=0.00347222 MHz, x1 = 0.4985 | 2.33
Frequency=0.00347222 MHz, x1 = 0.6954 | 1.912
Frequency=0.00347222 MHz, x1 = 0.9013 | 1.607
Frequency=0.00347222 MHz, x1 = 1 | 1.527
Frequency=0.004 MHz, x1 = 0.0463 | 1.58
Frequency=0.004 MHz, x1 = 0.0987 | 2.38
Frequency=0.004 MHz, x1 = 0.1449 | 2.71
Frequency=0.004 MHz, x1 = 0.1859 | 2.9
Frequency=0.004 MHz, x1 = 0.2493 | 2.85
Frequency=0.004 MHz, x1 = 0.3029 | 2.79
Frequency=0.004 MHz, x1 = 0.3845 | 2.618
Frequency=0.004 MHz, x1 = 0.4985 | 2.33
Frequency=0.004 MHz, x1 = 0.6954 | 1.912
Frequency=0.004 MHz, x1 = 0.9013 | 1.607
Frequency=0.004 MHz, x1 = 1 | 1.527
Frequency=0.00446429 MHz, x1 = 0.0463 | 1.58
Frequency=0.00446429 MHz, x1 = 0.0987 | 2.38
Frequency=0.00446429 MHz, x1 = 0.1449 | 2.71
Frequency=0.00446429 MHz, x1 = 0.1859 | 2.9
Frequency=0.00446429 MHz, x1 = 0.2493 | 2.85
Frequency=0.00446429 MHz, x1 = 0.3029 | 2.79
Frequency=0.00446429 MHz, x1 = 0.3845 | 2.618
Frequency=0.00446429 MHz, x1 = 0.4985 | 2.33
Frequency=0.00446429 MHz, x1 = 0.6954 | 1.912
Frequency=0.00446429 MHz, x1 = 0.9013 | 1.608
Frequency=0.00446429 MHz, x1 = 1 | 1.527
Frequency=0.005 MHz, x1 = 0.0463 | 1.58
Frequency=0.005 MHz, x1 = 0.0987 | 2.38
Frequency=0.005 MHz, x1 = 0.1449 | 2.71
Frequency=0.005 MHz, x1 = 0.1859 | 2.9
Frequency=0.005 MHz, x1 = 0.2493 | 2.85
Frequency=0.005 MHz, x1 = 0.3029 | 2.79
Frequency=0.005 MHz, x1 = 0.3845 | 2.618
Frequency=0.005 MHz, x1 = 0.4985 | 2.33
Frequency=0.005 MHz, x1 = 0.6954 | 1.912
Frequency=0.005 MHz, x1 = 0.9013 | 1.608
Frequency=0.005 MHz, x1 = 1 | 1.527
Frequency=0.005454 MHz, x1 = 0.0463 | 1.58
Frequency=0.005454 MHz, x1 = 0.0987 | 2.38
Frequency=0.005454 MHz, x1 = 0.1449 | 2.71
Frequency=0.005454 MHz, x1 = 0.1859 | 2.9
Frequency=0.005454 MHz, x1 = 0.2493 | 2.86
Frequency=0.005454 MHz, x1 = 0.3029 | 2.79
Frequency=0.005454 MHz, x1 = 0.3845 | 2.619
Frequency=0.005454 MHz, x1 = 0.4985 | 2.33
Frequency=0.005454 MHz, x1 = 0.6954 | 1.912
Frequency=0.005454 MHz, x1 = 0.9013 | 1.608
Frequency=0.005454 MHz, x1 = 1 | 1.527
Frequency=0.006 MHz, x1 = 0.0463 | 1.58
Frequency=0.006 MHz, x1 = 0.0987 | 2.38
Frequency=0.006 MHz, x1 = 0.1449 | 2.71
Frequency=0.006 MHz, x1 = 0.1859 | 2.9
Frequency=0.006 MHz, x1 = 0.2493 | 2.86
Frequency=0.006 MHz, x1 = 0.3029 | 2.79
Frequency=0.006 MHz, x1 = 0.3845 | 2.619
Frequency=0.006 MHz, x1 = 0.4985 | 2.33
Frequency=0.006 MHz, x1 = 0.6954 | 1.912
Frequency=0.006 MHz, x1 = 0.9013 | 1.608
Frequency=0.006 MHz, x1 = 1 | 1.527
Frequency=0.00652174 MHz, x1 = 0.0463 | 1.58
Frequency=0.00652174 MHz, x1 = 0.0987 | 2.38
Frequency=0.00652174 MHz, x1 = 0.1449 | 2.71
Frequency=0.00652174 MHz, x1 = 0.1859 | 2.9
Frequency=0.00652174 MHz, x1 = 0.2493 | 2.86
Frequency=0.00652174 MHz, x1 = 0.3029 | 2.79
Frequency=0.00652174 MHz, x1 = 0.3845 | 2.619
Frequency=0.00652174 MHz, x1 = 0.4985 | 2.33
Frequency=0.00652174 MHz, x1 = 0.6954 | 1.913
Frequency=0.00652174 MHz, x1 = 0.9013 | 1.608
Frequency=0.00652174 MHz, x1 = 1 | 1.527
Frequency=0.00694444 MHz, x1 = 0.0463 | 1.58
Frequency=0.00694444 MHz, x1 = 0.0987 | 2.38
Frequency=0.00694444 MHz, x1 = 0.1449 | 2.71
Frequency=0.00694444 MHz, x1 = 0.1859 | 2.901
Frequency=0.00694444 MHz, x1 = 0.2493 | 2.86
Frequency=0.00694444 MHz, x1 = 0.3029 | 2.79
Frequency=0.00694444 MHz, x1 = 0.3845 | 2.619
Frequency=0.00694444 MHz, x1 = 0.4985 | 2.33
Frequency=0.00694444 MHz, x1 = 0.6954 | 1.913
Frequency=0.00694444 MHz, x1 = 0.9013 | 1.608
Frequency=0.00694444 MHz, x1 = 1 | 1.527
Frequency=0.0075 MHz, x1 = 0.0463 | 1.58
Frequency=0.0075 MHz, x1 = 0.0987 | 2.38
Frequency=0.0075 MHz, x1 = 0.1449 | 2.71
Frequency=0.0075 MHz, x1 = 0.1859 | 2.901
Frequency=0.0075 MHz, x1 = 0.2493 | 2.86
Frequency=0.0075 MHz, x1 = 0.3029 | 2.79
Frequency=0.0075 MHz, x1 = 0.3845 | 2.619
Frequency=0.0075 MHz, x1 = 0.4985 | 2.33
Frequency=0.0075 MHz, x1 = 0.6954 | 1.913
Frequency=0.0075 MHz, x1 = 0.9013 | 1.608
Frequency=0.0075 MHz, x1 = 1 | 1.527
Frequency=0.008 MHz, x1 = 0.0463 | 1.58
Frequency=0.008 MHz, x1 = 0.0987 | 2.38
Frequency=0.008 MHz, x1 = 0.1449 | 2.71
Frequency=0.008 MHz, x1 = 0.1859 | 2.902
Frequency=0.008 MHz, x1 = 0.2493 | 2.86
Frequency=0.008 MHz, x1 = 0.3029 | 2.79
Frequency=0.008 MHz, x1 = 0.3845 | 2.62
Frequency=0.008 MHz, x1 = 0.4985 | 2.33
Frequency=0.008 MHz, x1 = 0.6954 | 1.913
Frequency=0.008 MHz, x1 = 0.9013 | 1.608
Frequency=0.008 MHz, x1 = 1 | 1.527
Frequency=0.00857143 MHz, x1 = 0.0463 | 1.58
Frequency=0.00857143 MHz, x1 = 0.0987 | 2.38
Frequency=0.00857143 MHz, x1 = 0.1449 | 2.71
Frequency=0.00857143 MHz, x1 = 0.1859 | 2.902
